From ChEMBL document CHEMBL1201862, “PubChem BioAssay data set” (2004) come the findings set out here.

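Following 48 hours of exposure in 96-well plates, responses at five concentrations were used to interpolate endpoints linearly. At the GI50, growth is halved.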 Active and inactive are the calls of the source. Rule as the data show it: active = GI50 up to about 1.1 µM and inactive = higher.

Assay in all cases: growth of human tumour cells (NCI), 48 h
Experiment [1] relates to SF-295.
In experiment [2] the test system is SK-MEL-2.
Experiment [3] concerns NCI-H460.
Experiment [4] deals with MDA-MB-435.
The subject of experiment [5] is CCRF-CEM.
The test system of experiment [6] is 786-0.
Experiment [7] concerns MCF7.
For experiment [8], the system named is HOP-62.
Experiment [9] deals with SNB-19.
Experiment [10] has as its system NCI-H23.
For experiment [11], the system named is UACC-257.
Experiment [12] relates to MDA-N.
Experiment [13] deals with PC-3.
Experiment [14] concerns OVCAR-5.
The test system of experiment [15] is TK-10.
In experiment [16] the test system is A549.
Experiment [17] deals with U-251.
The test system of experiment [18] is MOLT-4.
In experiment [19] the test system is UACC-62.

For the compound `COC(=O)c1ccc(NCc2cc(O)ccc2O)cc1O`, the GI50 was 12.9 µM (inactive) in [1]; 16.4 µM (inactive) in experiment [2]; 14.4 µM (inactive) in [3]; 11.1 µM (inactive) in [4]; 0.877 µM (active) in [5]; 8.07 µM (inactive) in experiment [6]. For the same compound, the GI50 in experiment [7] was 6.67 µM (inactive); in experiment [8], 10.9 µM (inactive); in [9], 13.2 µM (inactive); in experiment [10], 9.46 µM (inactive); in experiment [11] it was 15.7 µM (inactive); in experiment [12], 10.7 µM (inactive). For the same compound, the GI50 in [13] was 4.89 µM (inactive); in [14], 16.7 µM (inactive); in experiment [15], 16.7 µM (inactive); in experiment [16], 12.2 µM (inactive); in experiment [17], 11.9 µM (inactive); in [18] it was 2.09 µM (inactive). For the same compound, the GI50 in experiment [19] was 13.1 µM (inactive).
As to `Cn1c(=S)c2nc(SCCN3C(=O)c4ccccc4C3=O)[nH]c2n(C)c1=O`, the GI50 is > 100 µM (inactive) in experiment [1]; > 100 µM (inactive) in [2]; 92.7 µM (inactive) in experiment [3]; > 100 µM (inactive) in [4]; 17.3 µM (inactive) in experiment [5]; > 100 µM (inactive) in [6]. Further, the GI50 is 32.7 µM (inactive) in experiment [7]; > 100 µM (inactive) in experiment [8]; > 100 µM (inactive) in experiment [9]; > 100 µM (inactive) in [10]; > 100 µM (inactive) in experiment [11]; > 100 µM (inactive) in experiment [12]. Moreover, the GI50 is > 100 µM (inactive) in [13]; > 100 µM (inactive) in [14]; > 100 µM (inactive) in experiment [15]; > 100 µM (inactive) in experiment [16]; > 100 µM (inactive) in [17]; 88.3 µM (inactive) in [18]. Further, in experiment [19], the GI50 was > 100 µM (inactive).
As for `Nc1n[n+]2cc(-c3ccccc3)n(CC(=O)c3ccccc3)c2s1`, the GI50 in [1] is > 100 µM (inactive); in [2] it was 15.5 µM (inactive); in experiment [3], > 100 µM (inactive); in experiment [4], 36.9 µM (inactive); in experiment [5], 15.8 µM (inactive); in experiment [6], 20.5 µM (inactive). The GI50 in [7] is 10.8 µM (inactive); in experiment [8] it was 24.8 µM (inactive); in experiment [9], 21.7 µM (inactive); in [10], 20.6 µM (inactive); in [11], 25.5 µM (inactive); in experiment [12], 34.4 µM (inactive). In addition, the GI50 in experiment [13] is 39 µM (inactive); in experiment [14] it was 18.8 µM (inactive); in experiment [15], 23.6 µM (inactive); in experiment [16] it was > 100 µM (inactive); in experiment [17], 16.1 µM (inactive); in experiment [18], 20.9 µM (inactive). The GI50 in experiment [19] is 30.5 µM (inactive).
`c1ccc2c(c1)Nc1nc3nonc3nc1N2`: the GI50 in experiment [1], in experiment [2], in experiment [3], in experiment [4], in [5] and in experiment [6] was > 100 µM (inactive) throughout. For the same compound, the GI50 in experiment [7], in [8], in [9], in [10], in experiment [11] and in experiment [12] was > 100 µM (inactive) each time. The GI50 in experiment [13], in experiment [14], in experiment [15], in [16], in experiment [17] and in experiment [18] was > 100 µM (inactive) throughout. Further, the GI50 in experiment [19] was > 100 µM (inactive).
Turning to `C/C(=N\Nc1nc2ccccc2[nH]1)c1ccncn1`, the GI50 in [1] was 0.115 µM (active); in experiment [2], 0.617 µM (active); in experiment [3], 0.0914 µM (active); in experiment [4], 0.154 µM (active); in experiment [5] it was 0.0776 µM (active); in experiment [6] it was 0.0693 µM (active). The GI50 in [7] is 0.152 µM (active); in experiment [8], 0.0951 µM (active); in experiment [9] it was 0.246 µM (active); in experiment [10] it was 0.0973 µM (active); in experiment [11], 1.41 µM (inactive); in experiment [12], 0.698 µM (active). In addition, the GI50 was 2.61 µM (inactive) in experiment [13]; 4.11 µM (inactive) in experiment [14]; 3.43 µM (inactive) in [15]; 0.151 µM (active) in experiment [16]; 0.147 µM (active) in experiment [17]; 0.17 µM (active) in [18]. For the same compound, the GI50 in experiment [19] is 0.0764 µM (active).
`COC(=O)c1ccccc1C1CN=NC12Cc1c(C)c3c(c(C)c1C2=O)CCC3` (stereo not given): the GI50 in experiment [1] was 33.1 µM (inactive); in [2], > 100 µM (inactive); in experiment [3] it was > 100 µM (inactive); in experiment [4], > 100 µM (inactive); in experiment [5], > 100 µM (inactive); in [6], 76.9 µM (inactive). Also, the GI50 is > 100 µM (inactive) in experiment [7]; 77.4 µM (inactive) in experiment [8]; > 100 µM (inactive) in experiment [9]; 54.6 µM (inactive) in experiment [10]; 25.2 µM (inactive) in experiment [11]; > 100 µM (inactive) in experiment [12]. Also, the GI50 in [13] is > 100 µM (inactive); in experiment [14] it was > 100 µM (inactive); in [15] it was 2.48 µM (inactive); in experiment [16] it was > 100 µM (inactive); in experiment [17] it was > 100 µM (inactive); in [18] it was > 100 µM (inactive). In experiment [19], the GI50 was > 100 µM (inactive).
As to `O=C(NN=C(c1ccccc1)c1ccccc1)/C(O)=C/C(=O)c1ccc(Cl)cc1`, the GI50 was 34.7 µM (inactive) in experiment [1]; 29 µM (inactive) in experiment [2]; 5.5 µM (inactive) in experiment [3]; 69.3 µM (inactive) in [4]; 24.4 µM (inactive) in [5]; 37.3 µM (inactive) in experiment [6]. Besides, the GI50 in experiment [7] is 28 µM (inactive); in experiment [8] it was 45.2 µM (inactive); in experiment [9], 38.3 µM (inactive); in [10] it was 23.2 µM (inactive); in experiment [11] it was 37.3 µM (inactive); in [12], 40.5 µM (inactive). In addition, the GI50 in experiment [13] was 27.1 µM (inactive); in [14], > 100 µM (inactive); in experiment [15] it was 48.5 µM (inactive); in experiment [16] it was 27.7 µM (inactive); in experiment [17], 39.1 µM (inactive); in experiment [18], 35 µM (inactive). Moreover, the GI50 in [19] was 39.1 µM (inactive).
For the compound `COC(=O)/C=C\C(C#N)(C#N)/N=C/c1ccc(Br)s1`, the GI50 is 17.7 µM (inactive) in [1]; 17.3 µM (inactive) in experiment [2]; 20.8 µM (inactive) in experiment [3]; 5.56 µM (inactive) in experiment [4]; 0.853 µM (active) in experiment [5]; 5.42 µM (inactive) in experiment [6]. In addition, the GI50 in experiment [7] is 2.47 µM (inactive); in experiment [8], 17.6 µM (inactive); in [9], 14.8 µM (inactive); in experiment [10], 9.2 µM (inactive); in [11] it was 15.1 µM (inactive); in experiment [12], 7.98 µM (inactive). In addition, the GI50 in experiment [13] was 13.4 µM (inactive); in experiment [14], 9.64 µM (inactive); in experiment [15], 2.38 µM (inactive); in experiment [16], 21.2 µM (inactive); in experiment [17], 16 µM (inactive); in experiment [18], 2.07 µM (inactive). Besides, the GI50 in [19] was 10.7 µM (inactive).
With `NC(=S)N/N=c1\cc(C(=O)Nc2ccc([N+](=O)[O-])cc2[N+](=O)[O-])oc2ccccc12`, the GI50 in [1], in experiment [2], in experiment [3], in [4], in experiment [5] and in experiment [6] was > 100 µM (inactive) in each case. For the same compound, the GI50 in experiment [7], in experiment [8], in experiment [9], in experiment [10], in [11] and in experiment [12] was > 100 µM (inactive) each time. For the same compound, the GI50 in [13], in experiment [14], in [15], in experiment [16], in experiment [17] and in [18] was > 100 µM (inactive) in each case. For the same compound, the GI50 in experiment [19] was > 100 µM (inactive).
`CCOP(=O)(C/C=C/Cn1nc(Br)c(=O)[nH]c1=O)OCC`: the GI50 in experiment [1], in experiment [2], in [3], in experiment [4], in experiment [5] and in [6] was > 100 µM (inactive) in each case. Besides, the GI50 in [7], in experiment [8], in experiment [9], in [10], in experiment [11] and in [12] was > 100 µM (inactive) each time. The GI50 in experiment [13], in [14], in [15], in experiment [16], in [17] and in [18] was > 100 µM (inactive) in each case. The GI50 in experiment [19] is > 100 µM (inactive).
